Entries after “also recorded” stand apart in the source; their conditions may differ. Blank lines part the entries; values can stand above or below the molecule they belong to.
Legend:
[1] = system: spontaneously hypertensive rats; conditions: injection; cited from earlier work
[2] = system: soluble epoxide hydrolase (sEH); assay: inhibition of soluble epoxide hydrolase; type: biochemical, human
From the text: Epoxide hydrolases (“EH;” EC 3.3.2.3) are enzymes in the alpha beta hydrolase fold family that add water to 3 membered cyclic ethers termed epoxides. Soluble epoxide hydrolase (sEH) is an enzyme which in endothelial and smooth muscle cells converts EETs to dihydroxy derivatives called dihydroxyeicosatrienoic acids (DHETs). The cloning and sequence of the murine sEH is set forth in Grant et al., J. Biol. Chem. 268(23):17628-17633 (1993). The cloning, sequence, and accession numbers of the human sEH sequence are set forth in Beetham et al., Arch. Biochem. Biophys. 305(1): 197-201 (1993). The evolution and nomenclature of the gene is discussed in Beetham et al., DNA Cell Biol. 14(1):61-71 (1995). Unless otherwise specified, as used herein, the terms “soluble epoxide hydrolase” and “sEH” refer to human sEH. Derivatives of urea are transition state mimetics that form a preferred group of sEH inhibitors. […] Any particular urea derivative or other compound can be easily tested for its ability to inhibit sEH by standard assays, such as the one used in the Examples herein. […] The enzyme also can be detected based on the binding of specific ligands to the catalytic site which either immobilize the enzyme or label it with a probe such as luciferase, green fluorescent protein or other reagent. […]

metabolic stability = type: in vitro ADME
porcine aortic VSM cells = conditions: 14,15-EET 2 μM, chalcone oxide with PDGF and exogenous EETs; cited from earlier work
[3] = system: soluble epoxide hydrolase (sEH); conditions: cited from earlier work

Structure (SMILES): O=C(NC1CCCCC1)NC1CCCCC1 [DCU, N,N′-dicyclohexylurea]
systemic blood pressure [1]: lowering of blood pressure; also recorded: lower systemic blood pressure

activity as an inhibitor of sEH [2]: particularly high activity | metabolic stability (metabolic stability): metabolically stable
Structure (SMILES): CCCCCCCCCCCCNC(=O)NC12CC3CC(CC(C3)C1)C2 [ADU, N-adamantyl-N′-dodecyl urea]

Structure (SMILES): CCCCCC1OC1C/C=C\C/C=C\C/C=C\CCCC(=O)O (stereo not drawn) [14,15-EET]
PDGF-mediated DNA synthesis / mitogenesis (porcine aortic VSM cells): increase PDGF-mediated DNA synthesis

Structure (SMILES): O=C(c1ccccc1)C1OC1c1ccc(-c2ccccc2)cc1 (stereo not drawn) [4-phenylchalcone oxide, reference compound]
in vitro inhibition of epoxide hydrolases [3]: potent | PDGF-mediated DNA synthesis / mitogenesis (porcine aortic VSM cells): additive increase in mitogenesis
